Laboratory results taken from the supplement of paper PMC10307832.

Columns and labels:
Assay in all cases: relative viability (nuclei count vs DMSO), 5 days (fraction); higher = more cells survive
[1] = compound: CCn1c(-c2nonc2N)nc2c(C#CC(C)(C)O)ncc(OC[C@H]3CCCNC3)c21 + Nc1nc2[nH]cc(CCc3ccc(C(=O)N[C@@H](CCC(=O)O)C(=O)O)cc3)c2c(=O)[nH]1 [Pemetrexed] (partner 0.2 µM)
In short: (§1)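 Lung cancer cell lines, seeded in 1536-well plates, were treated the following day by pin tool with a single drug or with five library-drug doses (not always all listed) in √10 steps on top of a fixed anchor-drug dose. Cells were fixed and nuclei stained in one step after 5 days, and nuclei were counted. Relative viability is the nuclei count for treated wells divided by that for vehicle wells, reported as medians of duplicate plates.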

BAM7 + OSI-027 = compound: CCOC1=CC=CC=C1N=NC2=C(NN(C2=O)C3=NC(=CS3)C4=CC=CC=C4)C [BAM7] + COc1cccc2cc(-c3nc([C@H]4CC[C@H](C(=O)O)CC4)n4ncnc(N)c34)[nH]c12 [OSI-027] (partner 0.5 µM)
In short: as §1

[2] = compound: CCn1c(-c2nonc2N)nc2c(C#CC(C)(C)O)ncc(OC[C@H]3CCCNC3)c21
In short: (§2)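 MetaXpress counted nuclei in 4× images of lung cancer cell lines that had been fixed, permeabilised and Hoechst-stained in one step. Before that, cells in 1536-well plates were kept overnight at 37 °C, pinned with five √10-spaced library-drug doses on vehicle-anchored plates, and cultured 5 days without medium change. Viability takes treated-well nuclei over vehicle-well nuclei and uses the median across plates. Plates were accepted only at control CV below 25% and at least one doubling.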

BAM7 = compound: CCOC1=CC=CC=C1N=NC2=C(NN(C2=O)C3=NC(=CS3)C4=CC=CC=C4)C [BAM7]
In short: as §2

| Cell Line | relative viability ([1]; first compound 0.01 µM) | relative viability ([1]; first compound 0.03162 µM) | relative viability ([1]; first compound 0.1 µM) | relative viability ([1]; first compound 0.3162 µM) | relative viability ([1]; first compound 1 µM) | relative viability (BAM7 + OSI-027; first compound 0.5 µM) | relative viability (BAM7 + OSI-027; first compound 5 µM) | relative viability (BAM7 + OSI-027; first compound 15.81 µM) | relative viability (BAM7 + OSI-027; first compound 50 µM) | relative viability ([2]; 0.01 µM) | relative viability ([2]; 0.03162 µM) | relative viability ([2]; 0.1 µM) | relative viability ([2]; 0.3162 µM) | relative viability ([2]; 1 µM) | relative viability (BAM7; 0.5 µM) | relative viability (BAM7; 5 µM) | relative viability (BAM7; 15.81 µM) | relative viability (BAM7; 50 µM) |
| --- | --- | --- | --- | --- | --- | --- | --- | --- | --- | --- | --- | --- | --- | --- | --- | --- | --- | --- |
| SK-MES-1 | 0.971 | 0.945 | 0.947 | 0.909 | 0.983 | 0.573 | 0.549 | 0.545 | 0.663 | 0.998 | 1.01 | 1.02 | 0.944 | 0.993 | 1.04 | 1.08 | 0.973 | 1.03 |
| SW 900 | 0.488 | 0.502 | 0.465 | 0.385 | 0.499 | 0.194 | 0.539 | 0.545 | 0.609 | 0.796 | 0.73 | 0.76 | 0.822 | 0.892 | 0.781 | 0.826 | 0.708 | 1.03 |
| SW 1573 | 0.772 | 0.773 | 0.765 | 0.646 | 0.736 | 0.753 | 0.708 | 0.591 | 0.711 | 0.98 | 0.932 | 0.871 | 0.677 | 0.777 | 1.03 | 1.18 | 0.969 | 1.08 |
